# Tests used:
# RET = RET (Homo sapiens, UniProt P07949); test: Biochemical kinase selectivity assay, RET; conditions: in vitro kinase assay; read-out: RET IC50 (nM) ± SD
# Molm14 par = test: Cell proliferation (CellTiter-Glo, 48 h), Molm14 par; type: cell-based; conditions: Homo sapiens, MOLM-14
# Text: (§1) Stable BaF3 populations expressing activated FLT3 were generated by retroviral spinfection with the appropriate mutated plasmid followed by selection and growth factor withdrawal as previously described. The BaF3 cell line was originally obtained from the laboratory of Charles Sawyers and has not been authenticated. MV411 and Molm14 cells were obtained from the laboratory of Scott Kogan and authenticated by Promega STR analysis in June 2013. All cell lines were mycoplasma-free. Cells were incubated with compounds for 48 hours and proliferation was assessed using CellTiter-Glo (Promega; Madison, WI) according to the manufacturer’s recommendation on a SpectraMax M3 microplate reader using SpectraMax Software (Molecular Devices; Sunnyvale, CA). All cell viability data shown is reflective of experiments performed a minimum of three times. […]
# (§2) S13. Cell Cultures: Stable BaF3 populations expressing activated FLT3 were generated by retroviral spinfection with the appropriate mutated plasmid followed by selection and growth factor withdrawal as previously described .4 The BaF3 cell line was originally obtained from the laboratory of Charles Sawyers and has not been authenticated. MV411 and Molm14 cells were obtained from the laboratory of Scott Kogan and authenticated by Promega STR analysis in June
# (§3) 2013. All cell lines were mycoplasma -free. Cells were incubated with compounds for 48 hours and proliferation was assessed using CellTiter -Glo (Promega; Madison, WI) according to the manufacturer’s recommendation on a SpectraMax M3 microplate reader using SpectraMax Software (Molecular Devices; Sunnyvale, CA). All cell viability data shown is reflective of experiments performed a minimum of three times.
# MV4–11 AML cells = test: Cell proliferation (CellTiter-Glo, 48 h), MV4-11; type: cell-based; conditions: Homo sapiens; MV4–11, 48 hours
# Text: as §1, §2, §3
# RETV804L = target: T1, RETV804L (Homo sapiens, UniProt P07949, V804L); test: Biochemical kinase selectivity assay, RET V804L
# T1 sequence (P07949 658-1114 V804L limits assumed): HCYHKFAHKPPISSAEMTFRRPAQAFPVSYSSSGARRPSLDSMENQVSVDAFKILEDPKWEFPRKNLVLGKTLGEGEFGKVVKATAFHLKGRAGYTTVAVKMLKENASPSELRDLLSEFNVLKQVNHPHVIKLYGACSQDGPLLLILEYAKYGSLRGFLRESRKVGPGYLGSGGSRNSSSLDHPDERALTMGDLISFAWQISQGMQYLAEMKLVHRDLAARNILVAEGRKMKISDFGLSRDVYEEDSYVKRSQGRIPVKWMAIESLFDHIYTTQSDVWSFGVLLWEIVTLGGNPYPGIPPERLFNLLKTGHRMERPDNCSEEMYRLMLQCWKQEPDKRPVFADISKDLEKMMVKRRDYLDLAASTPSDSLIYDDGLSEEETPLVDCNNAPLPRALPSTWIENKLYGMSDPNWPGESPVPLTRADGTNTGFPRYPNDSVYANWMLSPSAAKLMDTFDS
# Chain of RET (P07949 29-1114, species assumed): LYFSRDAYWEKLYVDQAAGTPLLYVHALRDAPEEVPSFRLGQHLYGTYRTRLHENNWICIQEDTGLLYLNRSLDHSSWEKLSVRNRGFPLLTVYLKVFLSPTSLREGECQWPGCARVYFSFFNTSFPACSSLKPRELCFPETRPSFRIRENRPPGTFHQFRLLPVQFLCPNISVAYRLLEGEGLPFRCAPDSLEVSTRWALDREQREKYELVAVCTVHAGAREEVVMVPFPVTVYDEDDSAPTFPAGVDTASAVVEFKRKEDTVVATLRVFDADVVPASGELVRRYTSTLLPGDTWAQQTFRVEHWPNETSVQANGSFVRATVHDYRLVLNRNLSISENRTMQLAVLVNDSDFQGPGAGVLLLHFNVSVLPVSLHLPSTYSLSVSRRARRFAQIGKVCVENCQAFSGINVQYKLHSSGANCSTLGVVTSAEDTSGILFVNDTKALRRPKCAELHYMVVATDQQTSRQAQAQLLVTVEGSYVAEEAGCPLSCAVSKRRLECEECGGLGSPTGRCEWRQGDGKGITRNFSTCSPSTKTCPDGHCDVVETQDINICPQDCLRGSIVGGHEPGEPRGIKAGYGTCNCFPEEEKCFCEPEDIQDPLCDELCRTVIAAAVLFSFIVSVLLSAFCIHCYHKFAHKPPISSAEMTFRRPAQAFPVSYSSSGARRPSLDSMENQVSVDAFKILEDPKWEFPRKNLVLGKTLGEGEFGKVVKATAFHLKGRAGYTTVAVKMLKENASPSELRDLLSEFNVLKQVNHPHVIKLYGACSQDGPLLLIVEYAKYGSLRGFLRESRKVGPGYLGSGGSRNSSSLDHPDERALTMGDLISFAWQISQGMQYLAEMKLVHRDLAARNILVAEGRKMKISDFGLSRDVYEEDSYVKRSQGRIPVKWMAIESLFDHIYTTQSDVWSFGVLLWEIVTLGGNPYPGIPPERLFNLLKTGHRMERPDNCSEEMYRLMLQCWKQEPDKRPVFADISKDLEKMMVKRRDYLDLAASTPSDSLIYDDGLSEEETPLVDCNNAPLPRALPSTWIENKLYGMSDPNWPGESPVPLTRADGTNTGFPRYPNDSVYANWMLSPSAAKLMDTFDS
IC50 (RET) [nM],melting point [°C],GI50 (Molm14 par) [nM],GI50 (MV4–11 AML cells) [nM],inhibition at 20 µM (RETV804L) [%],Structure (SMILES)
4710 ± 342,134 to 136,24.4,9.9,62.3,"Cn1nc(C(C)(C)C)cc1NC(=O)Cc1ccc(Nc2cc(Nc3ccc(S(C)(=O)=O)cc3)ncn2)cc1 [13a, 2-(4-(6-(4-(Methylsulfonyl)phenylamino)pyrimidin-4-ylamino)phenyl)-N-(3-tert-butyl-1-methyl-1H-pyrazol-5-yl)acetamide]"
1660,168 to 170,19.8,7.2,40.8,"CC(C)(C)c1cc(NC(=O)Cc2ccc(Nc3cc(Nc4ccc(S(C)(=O)=O)cc4)ncn3)cc2)no1 [13k, 2-(4-(6-(4-(Methylsulfonyl)phenylamino)pyrimidin-4-ylamino)phenyl)-N-(5-tert-butylisoxazol-3-yl)acetamide]"

# From PMC5829162, “Rational Design, Synthesis and Biological Evaluation of Pyrimidine-4,6-diamine derivatives as Type-II inhibitors of FLT3 Selective Against c-KIT” (Scientific Reports, 2018)
